Values after ≈ are worked out from the molar mass of the structure shown.

The test system of the assay is Staphylococcus aureus ATCC29213. The assay is described as follows: Minimum Inhibitory Concentration (MIC) testing, broth microdilution or agar dilution. The conditions noted are these: MIC scored A/B/C, read-out: Staphylococcus aureus MICs, Activity. In kind it is cell-based. As for the experimental part: Minimum Inhibitory Concentration (MIC) Testing Compounds of this invention were tested for antimicrobial activity by susceptibility testing in liquid or on solid media. […] Activities were scored as ‘A’ if the MIC was ≦[…] micrograms/ml, ‘B’ if the MIC was 0.25 to 4 micrograms/ml and ‘C’ if the MIC was greater than 4 micrograms/ml.
(In broth dilution the organism is exposed to a series of concentrations in liquid medium.)
`NC(=O)c1c(F)ccc(OCc2nc(-c3ccc(Cl)cc3)ns2)c1F` [Example 1, 3-[3-(4-Chlorophenyl)-[1,2,4]thiadiazol-5-ylmethoxy]-2,6-difluorobenzamide]: the MIC is not above 1.12 µg/mL.

Regarding `COc1ccc(-c2nsc(COc3ccc(F)c(C(N)=O)c3F)n2)cc1` [Example 2, 2,6-Difluoro-3-[3-(4-methoxyphenyl)-[1,2,4]thiadiazol-5-ylmethoxy]-benzamide], the MIC is not above 1.12 µg/mL.

Take `NC(=O)c1c(F)ccc(OCc2nc(-c3ccc(OC(F)(F)F)cc3)ns2)c1F` [Example 3, 2,6-Difluoro-3-[3-(4-trifluoromethoxyphenyl)-[1,2,4]thiadiazol-5-ylmethoxy]-benzamide]: the MIC was not above 1.12 µg/mL.

Regarding `NC(=O)c1c(F)ccc(OCc2nc(-c3ccc(O)cc3)ns2)c1F` [Example 4, 2,6-Difluoro-3-[3-(4-hydroxyphenyl)-[1,2,4]thiadiazol-5-ylmethoxy]-benzamide], the MIC was 0.25 to 4 µg/mL (≈ 0.688 to 11 µM).

`COc1cc(Cl)ccc1-c1nsc(COc2ccc(F)c(C(N)=O)c2F)n1` [Example 5, 3-((3-(4-chloro-2-methoxyphenyl)-1,2,4-thiadiazol-5-yl)methoxy)-2,6-difluorobenzamide]: the MIC was in the range of 0.25 to 4 µg/mL (≈ 0.607 to 9.71 µM).

With `NC(=O)c1c(F)ccc(OCc2nc(-c3ccc(Cl)cc3OCc3ccccc3)ns2)c1F` [Example 6, 3-((3-(2-(Benzyloxy)-4-chlorophenyl)-1,2,4-thiadiazol-5-yl)methoxy)-2,6-difluorobenzamide], the MIC was 0.25 to 4 µg/mL (≈ 0.512 to 8.2 µM).

Turning to `NC(=O)c1c(F)ccc(OCc2nc(-c3ccc(Cl)cc3O)ns2)c1F` [Example 7, 3-((3-(4-chloro-2-hydroxyphenyl)-1,2,4-thiadiazol-5-yl)methoxy)-2,6-difluorobenzamide], the MIC is not above 1.12 µg/mL.

Values taken from patent publication US8492414B2, “Antibacterial agents” (Biota Scientific Management Pty Ltd, priority 2007, dated 2013).
